Assays:
Type in all cases: in vivo
Set-up in all cases: key: 0: no effect; 10-25% kill; 26-35% kill; 36-45% kill; 46-55% kill; 56-65% kill; 66-75% kill; 76-85% kill; 86-99% kill; 9: 100% kill
[1] = system: Tetranychus urticae (OP-resistant strain), 2-spotted spider mite; assay: 2-spotted spider mite test, dipped infested limabean plants
Outline: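 Compound dissolved at 10,000 ppm in 35% aqueous acetone, then water-diluted; limabean primary leaves carrying ~100 OP-resistant mites each are dipped 3 s and dried. Adult mortality read on one leaf after 2 days, eggs/newly emerged nymphs on another after 5 days, scored by rating scale.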

[2] = system: Spodoptera eridania, 3rd instar larvae, southern armyworm; assay: Southern armyworm 3rd instar test, dipped limabean leaf; details: for ARMYWORM Day 3: rating at 3 days; for ARMYWORM Day 5: rating at 5 days
Outline: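 Ten 3rd instar larvae fed on limabean leaves that had been dipped for 3 s in test solution and dried. Test solutions were diluted in water from a 10,000 ppm stock in 35% acetone/water. Ratings at days 3 and 5 covered death, feeding reduction and abnormal molting.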

[3] = system: Heliothis virescens, 3rd instar tobacco budworm; assay: Tobacco budworm 3rd instar test, dipped cotton cotyledons; details: mortality rating after 3 days
Outline: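 Rating-scale scores of mortality and reduced feeding, taken 3 days after single third-instar larvae were caged on dried cotton cotyledon quarters. Cotyledons were pre-dipped in test solutions diluted with water from a 10,000 ppm stock in 35% acetone.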

[4] = system: Heliothis virescens, egg, tobacco budworm; assay: Tobacco budworm egg test, dipped cotton leaf and eggs; details: mortality rating after 3 days
Outline: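 Scoring is by mortality counts after 3 days, graded on a rating scale. Tobacco budworm eggs (6-30 h old) on cheesecloth and a young cotton leaf were each dipped about 3 s in the test suspension. Suspensions were made from a 10,000 ppm stock in 35% acetone/water with further water dilutions.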

[5] = system: Spodoptera eridania, 3rd instar larvae, southern armyworm; assay: Southern armyworm 7-day residual test; details: R designates Residual: 7-day residual foliage, concentration not given; for ARMYWORM Day 3 R: rating at 3 days; for ARMYWORM Day 5 R: rating at 5 days
Outline: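 Third-instar southern armyworm larvae were exposed to lima bean foliage that had been treated, then held 7 days under greenhouse lamps simulating bright sun for 14 h per day. Treatment solutions were diluted in water from a 10,000 ppm stock in 35% acetone. Results are scale ratings.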

[6] = system: Aphis fabae, mixed instar, bean aphid; assay: Bean aphid spray test on nasturtium; details: 100 ppm
Outline: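 Mortality rated on a scale 2 days after treatment of aphid-infested (100-200 per plant, infested a day earlier) ~5 cm nasturtiums sprayed to complete coverage. Spray solutions: 10,000 ppm compound in 35% acetone in water, with further water dilutions.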

[7] = system: Spodoptera eridania, 3rd instar larvae, southern armyworm; assay: Southern armyworm systemic uptake (stem systemic) test; details: cut stem in emulsion 3 days
[8] = 300 ppm, adult mites, rating scale 0-9
[9] = 300 ppm, mite eggs, rating scale 0-9
[10] = 300 ppm, mite nymphs, rating scale 0-9
[11] = spray, mortality rating after 2 days

Structure (SMILES) | OP-RESISTANT MITES Adult [1, 8] | OP-RESISTANT MITES Egg [1, 9] | OP-RESISTANT MITES Nymph [1, 10] | ARMYWORM Day 3 ([2]; 10 ppm) | ARMYWORM Day 5 ([2]; 10 ppm) | ARMYWORM Day 3 ([2]; 100 ppm) | ARMYWORM Day 5 ([2]; 100 ppm) | ARMYWORM Day 3 ([2]; 1000 ppm) | ARMYWORM Day 5 ([2]; 1000 ppm) | TOBACCO BUDWORM 3rd Instar ([3]; 10 ppm) | TOBACCO BUDWORM 3rd Instar ([3]; 100 ppm) | TOBACCO BUDWORM 3rd Instar ([3]; 1000 ppm) | TOBACCO BUDWORM Egg ([4]; 1000 ppm) | ARMYWORM Day 3 R [5] | ARMYWORM Day 5 R [5] | APHIDS ([6]; rating scale 0-9) | ARMYWORM Stem Sys [7] | OP-RESISTANT MITES Egg ([1]; 10 ppm, rating after 5 days) | OP-RESISTANT MITES Egg ([1]; 100 ppm, rating after 5 days) | OP-RESISTANT MITES Egg ([1]; 300 ppm, rating after 5 days) | also measured
N=C(N)SCn1c(-c2ccc(Cl)c(Cl)c2)c(Br)c(C(F)(F)F)c1C(F)(F)F [Example 18] | 9 (100% kill) | 0 | 0 | 0 | 0 | 9 (100% kill) | 9 (100% kill) | 9 (100% kill) | 9 (100% kill) | 0 | 9 (100% kill) | 9 (100% kill) | 0 | 9 (100% kill) | 9 (100% kill) | 0 | 0 |  |  |  | OP-RESISTANT MITES Adult ([1]; 10 ppm, adult mites, rating scale 0-9): 0; OP-RESISTANT MITES Egg ([1]; 10 ppm, mite eggs, rating scale 0-9): 0; OP-RESISTANT MITES Nymph ([1]; 10 ppm, mite nymphs, rating scale 0-9): 0; OP-RESISTANT MITES Adult ([1]; 100 ppm, adult mites, rating scale 0-9): 9 (100% kill); OP-RESISTANT MITES Egg ([1]; 100 ppm, mite eggs, rating scale 0-9): 0; OP-RESISTANT MITES Nymph ([1]; 100 ppm, mite nymphs, rating scale 0-9): 0
CN=C(NC)SCn1c(Br)c(Br)c(C#N)c1Br [Example 14] | 0 | 0 | 0 | 0 | 0 | 9 (100% kill) | 9 (100% kill) | 9 (100% kill) | 9 (100% kill) |  | 0 | 8 (86-99% kill) | 0 | 0 | 5 (56-65% kill) | 0 | 0 |  |  |  | 
CN(C)C(=S)SCn1c(-c2ccc(Cl)cc2)c(C#N)c(Br)c1C(F)(F)F [Example 24] |  |  |  | 9 (100% kill) | 9 (100% kill) | 9 (100% kill) | 9 (100% kill) | 9 (100% kill) | 9 (100% kill) | 0 | 9 (100% kill) | 9 (100% kill) | 0 | 9 (100% kill) | 9 (100% kill) |  | 0 | 0 | 9 (100% kill) | 9 (100% kill) | OP-RESISTANT MITES Adult ([1]; 10 ppm, mortality rating after 2 days): 9 (100% kill); OP-RESISTANT MITES Nymph ([1]; 10 ppm, rating after 5 days): 0; OP-RESISTANT MITES Adult ([1]; 100 ppm, mortality rating after 2 days): 9 (100% kill); OP-RESISTANT MITES Adult ([1]; 300 ppm, mortality rating after 2 days): 0; APHIDS [6, 11]: 7 (76-85% kill)
CN=C(NC)SCn1c(-c2ccc(Cl)cc2)c(C#N)c(Cl)c1C(F)(F)F [Example 2] |  |  |  | 9 (100% kill) | 9 (100% kill) | 9 (100% kill) | 9 (100% kill) | 9 (100% kill) | 9 (100% kill) | 9 (100% kill) | 9 (100% kill) | 9 (100% kill) | 0 | 9 (100% kill) | 9 (100% kill) |  | 0 | 0 | 9 (100% kill) | 0 | TOBACCO BUDWORM Egg ([4]; 100 ppm): 0; APHIDS [6, 11]: 0
N#Cc1c(Br)c(Br)n(CSC2=NCCCN2)c1Br [Example 13] | 5 (56-65% kill) | 0 | 0 |  |  | 0 |  | 9 (100% kill) |  |  |  | 0 | 0 | 0 | 7 (76-85% kill) | 0 | 7 (76-85% kill) |  |  |  | 

Reference: patent publication EP0545103A1, “Insecticidal, acaricidal and molluscicidal 1-(substituted) thioalkylpyrroles” (priority 1991, dated 1993)
